# Laboratory results from patent publication US20110045101A1, “FUNGICIDAL SUBSTITUTED AZOLES” (E.I. Du Pont De Nemours and Company, priority 2009, published 2011).
# Marks after values point to notes of the source that are not given here.
# Experiments:
# Type in all cases: in vivo
# Conditions in all cases: 100 = 100% disease control
# [1] = test system: Erysiphe graminis f. sp. tritici; assay: Test J: wheat powdery mildew on wheat seedlings, sprayed the day before inoculation, visual disease rating
# Outline: (§1)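 Acetone solution (3% of final volume) of each compound is suspended in 50/50 acetone/water with 250 ppm Trem® 014. Plants are sprayed to run-off at 200 ppm, equivalent to 500 g/ha, or at 40 ppm for starred values.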
# Alternaria solani = assay: Test D: tomato early blight, sprayed the day before inoculation, visual disease rating
# Outline: as §1
# Septoria tritici = assay: Test G: wheat leaf blotch on wheat seedlings, sprayed the day before inoculation, visual disease rating
# Outline: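 Wheat seedlings were sprayed to run-off with test suspension (acetone/water plus surfactant), generally 200 ppm (≈500 g/ha), or 40 ppm where marked. Septoria tritici spores were inoculated the next day; plants were held 48 h at 24°C in saturated atmosphere, then 19 days at 20°C before visual disease rating.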
# [2] = test system: Puccinia recondita f. sp. tritici; assay: Test I: wheat leaf rust on wheat seedlings, sprayed the day before inoculation, visual disease rating
# Outline: as §1
# Botrytis cinerea = assay: Test C: tomato Botrytis on tomato seedlings, sprayed the day before inoculation, visual disease rating
# Outline: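 Disease ratings refer to tomato seedlings treated by run-off spraying with compound suspensions, mostly 200 ppm (500 g/ha equivalent) and in marked cases 40 ppm. Carrier: acetone/purified water 50/50 with 250 ppm polyhydric alcohol ester surfactant, after predissolving in acetone.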
# Septoria nodorum = assay: Test F: wheat glume blotch on wheat seedlings, sprayed the day before inoculation, visual disease rating
# Outline: as §1
# [3] = test system: Puccinia recondita f. sp. tritici; assay: Test H: wheat leaf rust, test suspension sprayed after inoculation of wheat seedlings, visual disease rating
# Outline: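 Wheat seedlings inoculated with P. recondita spores, held 24 h saturated at 20 °C, then 2 days in growth chamber at 20 °C; compound suspension (acetone/water with Trem 014) sprayed to run-off afterwards. Rated visually; 200 ppm (≈500 g/ha) unless marked *, which denotes 40 ppm.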
# [4] = 200 ppm, 0 = no control relative to controls
# [5] = 40 ppm (marked *), 0 = no control
Compound,"Test J disease control rating [1, 4] [%]",Test D disease control rating (Alternaria solani; [4]) [%],Test G disease control rating (Septoria tritici; [4]) [%],"Test I disease control rating [2, 4] [%]",Test C disease control rating (Botrytis cinerea; [4]) [%],Test F disease control rating (Septoria nodorum; [4]) [%],"Test H disease control rating [3, 4] [%]",further results
"3-[4-[4-chloro-2-methyl-1-(4-methylphenyl)-1H-imidazol-5-yl]-3,5-difluorophenoxy]-N-methyl-1-propanamide hydrochloride [Compound 734]",95,99,99,100,100,99,41,
Cc1nc(C)n(-c2ccc(F)cc2)c1-c1c(F)cc(F)cc1F [compound 491],,,,,,,,Test J disease control rating ([1]; 40 ppm (marked *)): 0* %; Test D disease control rating (Alternaria solani; 40 ppm (marked *)): 99* %; Test G disease control rating (Septoria tritici; 40 ppm (marked *)): 91* %; Test I disease control rating ([2]; 40 ppm (marked *)): 0* %; Test C disease control rating (Botrytis cinerea; 40 ppm (marked *)): 92* %; Test F disease control rating (Septoria nodorum; 40 ppm (marked *)): 0* %; Test H disease control rating ([3]; 40 ppm (marked *)): 0* %
Fc1cccc(-n2c(Cl)nc(Cl)c2-c2c(F)cc(F)cc2F)c1 [compound 365],96,100,91,99,100,40,54,
Fc1cc(F)c(-c2c(Cl)nc(Br)n2-c2ccc(OC(F)F)cc2)c(F)c1 [compound 604],100,100,99,100,99,100,97,
Fc1cccc(-n2c(Br)nc(Cl)c2-c2c(F)ccc(F)c2F)c1 [compound 368],96,100,92,99,99,0,0,
Fc1cc(-n2c(Cl)nc(Cl)c2-c2cncc(Br)c2)ccc1Cl [compound 486],0,0,0,14,66,0,0,
COc1cc(F)c(-c2c(Cl)nc(Cl)n2C(C)c2ncc(Cl)cc2Cl)c(F)c1 (centres unmarked) [compound 727],21,0,89,74,98,0,15,
COc1ccc(F)c(-c2c(Cl)nc(C)n2-c2cccc(OC(F)F)c2)c1F [compound 426],100,100,100,100,100,100,27,
Fc1cc(-n2c(Cl)nc(CCl)c2-c2cccnc2Cl)ccc1Cl [compound 359],0,0,35,80,98,0,0,
COc1ccc(F)c(-c2c(Br)nc(Cl)n2-c2ccc(F)cc2)c1F [compound 472],100,100,96,100,100,100,80,
Cc1nc(Br)c(-c2c(F)cccc2F)n1-c1ccc(Cl)c2ccccc12 [compound 337],,,,,,,,"Test J disease control rating [1, 5]: 0* %; Test D disease control rating (Alternaria solani; [5]): 0* %; Test G disease control rating (Septoria tritici; [5]): 23* %; Test I disease control rating [2, 5]: 0* %; Test C disease control rating (Botrytis cinerea; [5]): 19* %; Test F disease control rating (Septoria nodorum; [5]): 0* %; Test H disease control rating [3, 5]: 0* %"
Fc1cc(-n2c(Cl)nc(CCl)c2-c2ccnc(Br)c2)ccc1Cl [compound 353],0,0,8,41,0,0,0,
COc1cc(OC)c(Br)c(-n2cnc(Br)c2-c2ccc(Cl)cc2F)c1Cl [compound 642],,,,,,,,Test J disease control rating ([1]; 40 ppm (marked *)): 56* %; Test D disease control rating (Alternaria solani; 40 ppm (marked *)): 0* %; Test G disease control rating (Septoria tritici; 40 ppm (marked *)): 94* %; Test I disease control rating ([2]; 40 ppm (marked *)): 98* %; Test C disease control rating (Botrytis cinerea; 40 ppm (marked *)): 97* %; Test F disease control rating (Septoria nodorum; 40 ppm (marked *)): 0* %; Test H disease control rating ([3]; 40 ppm (marked *)): 0* %
COc1cc(F)c(-c2c(Cl)ncn2-c2ccccc2)c(F)c1 [compound 420],100,100,100,100,100,99,0,
CCOc1ccc(F)c(-c2c(Cl)nc(C)n2-c2ccc(Cl)cc2)c1F [compound 684],100,100,99,99,100,100,53,
Fc1cc(-n2cnc(Br)c2-c2c(F)ccc(F)c2Cl)ccc1Cl [compound 409],98,9,100,96,100,0,0,
Clc1ccc(-c2c(Cl)nc(Cl)n2Cc2cccc(Cl)c2)cc1 [compound 361],80,0,93,74,99,0,9,
"COc1ccc(F)c(-c2c(C)nc(C)n2-c2ccc(F)cc2)c1F [Compound 549, 5-(2,6-difluoro-3-methoxyphenyl)-1-(4-fluorophenyl)-2,4-dimethyl-1H-imidazole]",,,,,,,,"pest or weed control at 200 ppm ([1]; Blumeria graminis, 168 h, 200 ppm, 0 = no control relative to controls): 100%; pest or weed control at 200 ppm (Alternaria solani; Alternaria solani, 168 h, 200 ppm, 0 = no control relative to controls): 100%; pest or weed control at 200 ppm (Septoria tritici; Zymoseptoria tritici, 504 h, 200 ppm, 0 = no control relative to controls): 98%; pest or weed control at 200 ppm ([2]; Puccinia recondita, 168 h, 200 ppm, 0 = no control relative to controls): 100%; pest or weed control at 200 ppm (Botrytis cinerea; Botrytis cinerea, 120 h, 200 ppm, 0 = no control relative to controls): 100%; pest or weed control at 200 ppm (Septoria nodorum; Parastagonospora nodorum, 264 h, 200 ppm, 0 = no control relative to controls): 99%; pest or weed control at 200 ppm ([3]; Puccinia recondita, 96 h, 200 ppm, 0 = no control relative to controls): 0%"
COc1ccc(F)c(-c2c(Br)nc(Cl)n2-c2ccc(C)cc2)c1F [compound 517],100,100,98,99,100,96,0,
CN(C)c1ncn(Cc2ccc(Cl)cc2)c1-c1c(F)ccc(F)c1F [compound 267],,,,,,,,"Test J disease control rating ([1]; 200 ppm, 0 = no control): 97%; Test D disease control rating (Alternaria solani; 200 ppm, 0 = no control): 0%; Test G disease control rating (Septoria tritici; 200 ppm, 0 = no control): 91%; Test I disease control rating ([2]; 200 ppm, 0 = no control): 86%; Test C disease control rating (Botrytis cinerea; 200 ppm, 0 = no control): 98%; Test F disease control rating (Septoria nodorum; 200 ppm, 0 = no control): 0%; Test H disease control rating ([3]; 200 ppm, 0 = no control): 9%"
Cc1nc(Cl)c(-c2ccc(Cl)c(F)c2)n1-c1ccc(F)cc1Cl [compound 421],100,98,100,100,100,0,0,
Cc1ccc(-n2c(Br)nc(Br)c2-c2c(F)ccc(F)c2F)cc1 [compound 461],,,,,,,,Test J disease control rating ([1]; 40 ppm (marked *)): 98* %; Test D disease control rating (Alternaria solani; 40 ppm (marked *)): 99* %; Test G disease control rating (Septoria tritici; 40 ppm (marked *)): 94* %; Test I disease control rating ([2]; 40 ppm (marked *)): 97* %; Test C disease control rating (Botrytis cinerea; 40 ppm (marked *)): 99* %; Test F disease control rating (Septoria nodorum; 40 ppm (marked *)): 0* %; Test H disease control rating ([3]; 40 ppm (marked *)): 0* %
N#Cc1ccc(F)c(-c2c(Cl)nc(Br)n2-c2ccc(Cl)nc2)c1F [compound 701],95,100,99,100,100,91,7,
